# Patent US12338220B2, “Antiviral pyrazolopiridinone compounds” (Novartis AG, priority 2019, dated 2025)
# Read-outs that look alike come from different tables or passages of the source.
# Assays:
# [1] = system: HCMV-Rluc virus (AD169 pp28-hRluc rUL131); experiment: CMV Luciferase Assay of Compounds 243-262 in ARPE-19 cells; format: cell-based; details: Human betaherpesvirus 5, AD169, ARPE-19, 72 h, read-out: CMV-Luc Cellular EC50 in ARPE-19
# Description: CMV Luciferase Assay of Compounds 243-262.
# Compounds 243-262 were tested in a luminescence assay as follows.
# ARPE-19 cells were maintained in growth medium (DMEM/F12 Glutamax+10 fetal bovine serum (FBS)+PenStrep) and, before reaching full confluence, were transferred to a centrifuge tube and spun for 5 minutes at 1000 rpm. The cells were resuspended in assay medium (DMEM/F12 Glutamax+2% FBS+PenStrep) and counted. Cell density was adjusted to one million cells per milliliter and infected with HCMV-Rluc virus (AD169 pp28-hRluc rUL131; MOI 0.6) in a 50 ml conical tube for 2 hours while shaking. After dilution of the infectious suspension ten-fold (to 100,000 cells per milliliter), 8000 cells are directly plated in 384-well plates pre-spotted with the compound to be tested. The cells were incubated for 72 hours at 37 degrees Celsius. Cells were then placed at room temperature and allowed to equilibrate for 20 minutes before addition of the Renilla-Glo (Promega) reagent. After a 10-minute incubation at room temperature, luminescence was measured on a microplate reader.
# CMV-polymerase = CMV-polymerase (Human cytomegalovirus (strain AD169) (HHV-5) (Human herpesvirus 5), UniProt P08546); experiment: biochemical
# CMV = experiment: microbe, parasite or virus in culture; format: cell-based; details: Human betaherpesvirus 5, 72 h, read-out: CMV-Luc Cellular EC50, NN-NHDF cells, MOI 1, 72 hrs
# HSV-polymerase = HSV-polymerase (Human herpesvirus 1 (strain 17) (HHV-1) (Human herpes simplex virus 1), UniProt P04293); experiment: biochemical
# [2] = CMV-polymerase Biochemical IC50
# [3] = read-out: CMV-polymerase Biochemical IC50
SMILES,EC50 [1] [µM],IC50 (CMV-polymerase; [2]) [µM],EC50 (CMV) [µM],IC50 (HSV-polymerase) [µM],IC50 (CMV-polymerase; [3]) [µM]
"Cn1nc(C(=O)NCc2ccc(C#N)cc2)c2c1C(=O)N(CC1(S(=O)(=O)NC3(c4cccnn4)CC3)CC1)CC2 [Example 256, N-(4-cyanobenzyl)-1-methyl-7-oxo-6-((1-(N-(1-(pyridazin-3-yl)cyclopropyl)sulfamoyl)cyclopropyl)methyl)-4,5,6,7-tetrahydro-1H-pyrazolo[3,4-c]pyridine-3-carboxamide]",10,,,,
"Cn1nc(C(=O)NCc2ccc(C#N)cc2)c2c1C(=O)N(CC1(S(=O)(=O)Nc3ncccc3F)CC1)CC2 [Example 247, N-(4-cyanobenzyl)-6-((1-(N-(3-fluoropyridin-2-yl)sulfamoyl)cyclopropyl)methyl)-1-methyl-7-oxo-4,5,6,7-tetrahydro-1H-pyrazolo[3,4-c]pyridine-3-carboxamide]",0.388,,,,
"Cn1nc(C(=O)NCc2ccc(Cl)c(F)c2)c2c1C(=O)N(CC1(S(=O)(=O)C(C)(C)[C@@H](O)CO)CC1)CC2 [Example 251, (S)—N-(4-chloro-3-fluorobenzyl)-6-((1-((3,4-dihydroxy-2-methylbutan-2-yl)sulfonyl)cyclopropyl)methyl)-1-methyl-7-oxo-4,5,6,7-tetrahydro-1H-pyrazolo[3,4-c]pyridine-3-carboxamide]",0.00983,,,,
"Cn1nc(C(=O)NCc2ccc(Cl)nc2)c2c1C(=O)N(CC1(S(=O)(=O)C3CC3)CC1)CC2 [Example 7, N-((6-Chloropyridin-3-yl)methyl)-6-((1-(cyclopropylsulfonyl)cyclopropyl)methyl)-1-methyl-7-oxo-4,5,6,7-tetrahydro-1H-pyrazolo[3,4-c]pyridine-3-carboxamide]",,0.056,0.534,0.861,
"Cn1nc(C2=NO[C@H](c3ccc(C#N)cc3)C2)c2c1C(=O)N(CC1(S(=O)(=O)C3CC3)CC1)CC2 [Example 33, (S)-4-(3-(6-((1-(cyclopropylsulfonyl)cyclopropyl)methyl)-1-methyl-7-oxo-4,5,6,7-tetrahydro-1H-pyrazolo[3,4-c]pyridin-3-yl)-4,5-dihydroisoxazol-5-yl)benzonitrile]",,1.19,9.94,> 25,
"CC(=O)NCC(C)(C)S(=O)(=O)C1(CN2CCc3c(C(=O)NCc4ccc(C#N)cc4)nn(C)c3C2=O)CC1 [Example 72, 6-((1-((1-Acetamido-2-methylpropan-2-yl)sulfonyl)cyclopropyl)methyl)-N-(4-cyanobenzyl)-1-methyl-7-oxo-4,5,6,7-tetrahydro-1H-pyrazolo[3,4-c]pyridine-3-carboxamide]",,0.002,0.083,0.051,
"COCC(C)(CO)S(=O)(=O)C1(CN2CCc3c(C(=O)NCc4ccc(C#N)cc4)nn(C)c3C2=O)CC1 (single isomer, unassigned) [Example 181, (R)- or (S)-N-(4-Cyanobenzyl)-6-((1-((1-hydroxy-3-methoxy-2-methylpropan-2-yl)sulfonyl)cyclopropyl)methyl)-1-methyl-7-oxo-4,5,6,7-tetrahydro-1H-pyrazolo[3,4-c]pyridine-3-carboxamide]",,0.004,0.077,0.069,
"Cn1nc(C(=O)NCc2ccc(C#N)cc2)c2c1C(=O)N(CC1(S(=O)(=O)C(C)(C)CCO)CC1)CC2 [Example 113, N-(4-Cyanobenzyl)-6-((1-((4-hydroxy-2-methylbutan-2-yl)sulfonyl)cyclopropyl)methyl)-1-methyl-7-oxo-4,5,6,7-tetrahydro-1H-pyrazolo[3,4-c]pyridine-3-carboxamide]",,,0.036,0.038,0.003
"Cn1nc(C(=O)NCc2ccc(C#N)cc2)c2c1C(=O)N(CC1(S(=O)(=O)C3(C(O)CO)CC3)CC1)CC2 (single isomer, unassigned) [Example 194, (R)- or (S)-N-(4-Cyanobenzyl)-6-((1-((1-(1,2-dihydroxyethyl)cyclopropyl)sulfonyl)cyclopropyl)methyl)-1-methyl-7-oxo-4,5,6,7-tetrahydro-1H-pyrazolo[3,4-c]pyridine-3-carboxamide]",,0.001,0.05,0.02,
"CNS(=O)(=O)C1(CN2CCc3c(C(=O)NCc4ccc(C#N)cc4)nn(C)c3C2=O)CC1 [Example 123, N-(4-cyanobenzyl)-1-methyl-6-((1-(N-methylsulfamoyl)cyclopropyl)methyl)-7-oxo-4,5,6,7-tetrahydro-1H-pyrazolo[3,4-c]pyridine-3-carboxamide]",,,0.157,0.196,0.009
"Cn1nc(C(=O)NCc2ccc(Cl)cc2)c2c1C(=O)N(CC1(S(=O)(=O)C(C)(C)C(N)=O)CC1)CC2 [Example 109, 6-((1-((1-amino-2-methyl-1-oxopropan-2-yl)sulfonyl)cyclopropyl)methyl)-N-(4-chlorobenzyl)-1-methyl-7-oxo-4,5,6,7-tetrahydro-1H-pyrazolo[3,4-c]pyridine-3-carboxamide]",,,0.078,0.076,0.003
"Cn1nc(C(=O)NCc2ccc(F)cc2)c2c1C(=O)N(CC1(S(=O)(=O)C(C)(C)COCCN)CC1)CC2 [Example 94, 6-((1-((1-(2-aminoethoxy)-2-methylpropan-2-yl)sulfonyl)cyclopropyl)methyl)-N-(4-fluorobenzyl)-1-methyl-7-oxo-4,5,6,7-tetrahydro-1H-pyrazolo[3,4-c]pyridine-3-carboxamide]",,,0.022,0.054,0.009
"Cn1nc(C(=O)NCc2ccc(Cl)cc2)c2c1C(=O)N(CC1(S(=O)(=O)C(C)(C)COCCN)CC1)CC2 [Example 93, 6-((1-((1-(2-Aminoethoxy)-2-methylpropan-2-yl)sulfonyl)cyclopropyl)methyl)-N-(4-chlorobenzyl)-1-methyl-7-oxo-4,5,6,7-tetrahydro-1H-pyrazolo[3,4-c]pyridine-3-carboxamide]",,,0.005,0.025,0.001
"Cn1nc(C2=NO[C@@H](c3ccc(C#N)cc3)C2)c2c1C(=O)N(CC1(S(=O)(=O)C3CC3)CC1)CC2 [Example 32, (R)-4-(3-(6-((1-(Cyclopropylsulfonyl)cyclopropyl)methyl)-1-methyl-7-oxo-4,5,6,7-tetrahydro-1H-pyrazolo[3,4-c]pyridin-3-yl)-4,5-dihydroisoxazol-5-yl)benzonitrile]",,0.003,0.041,0.161,
"Cn1nc(C(=O)NCc2ccc(C#N)cc2)c2c1C(=O)N(CC1(S(=O)(=O)C(C)(C)CNC=O)CC1)CC2 [Example 71, N-(4-Cyanobenzyl)-6-((1-((1-formamido-2-methylpropan-2-yl)sulfonyl)cyclopropyl)methyl)-1-methyl-7-oxo-4,5,6,7-tetrahydro-1H-pyrazolo[3,4-c]pyridine-3-carboxamide]",,0.001,0.095,0.033,
"Cn1nc(-c2cn(Cc3ccc(C#N)cc3)nn2)c2c1C(=O)N(CC1(S(=O)(=O)C(C)(C)CO)CC1)CC2 [Example 105, 4-((4-(6-((1-((1-Hydroxy-2-methylpropan-2-yl)sulfonyl)cyclopropyl)methyl)-1-methyl-7-oxo-4,5,6,7-tetrahydro-1H-pyrazolo[3,4-c]pyridin-3-yl)-1H-1,2,3-triazol-1-yl)methyl)benzonitrile]",,,0.042,0.032,0.001
